Measurements taken from patent US9809623B2, “α4β7 peptide monomer and dimer antagonists” (Protagonist Therapeutics, Inc., priority 2014, dated 2017).
Read-outs that look alike come from different tables or passages of the source. Numbered stars: 1 amine (or outer) side, 2 acyl side, 3 side chain; on linkers, the order of the positions; unused ones are H or OH. Bridge positions count the residues as written; N and C are the ends. Square brackets hold non-standard residues; d marks the D form. Peptide text beside a SMILES is read from it. I, II: the chains in the order shown. Phe(4-tBu) = CC(C)(C)c1ccc(C[C@H](N)C(=O)O)cc1; Bip = N[C@@H](Cc1ccc(-c2ccccc2)cc1)C(=O)O; Diglycolyl = O=C(COCC(=O)[*:2])[*:1]; NMeR = CN[C@@H](CCCNC(=N)N)C(=O)O; β3hE = N[C@@H](CCC(=O)O)CC(=O)O; NMeK = CN[C@@H](CCCCN)C(=O)O; Pen = CC(C)(S)[C@H](N)C(=O)O

Legend:
α4β7 = α4β7 (Homo sapiens, UniProt P13612+P26010); experiment: α4β7-MAdCAM Cell Adhesion Assay (RPMI 8866 human cells); assay type: cell-based; design: host or cells: RPMI 8866 human B lymphoblastoid cells
Outline: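 Washed RPMI 8866 cells (200,000/well) in DMEM with 0.1% BSA, 10 mM HEPES pH 7, 1 mM MnCl2 adhered to rh MAdCAM-1/Fc-coated wells with serially diluted peptides, 30-45 min at 37 °C. After three washes, bound cells quantified by MTT, A570, cell-free background subtracted for dose response.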

[1] = Simulated Intestinal Fluid (SIF) Stability Assay; assay type: in vitro ADME, porcine; conditions: pig, simulated intestinal fluid (SIF) with 1% porcine pancreatin
Outline: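 Peptides (22 μM final) incubated at 37 °C in FASSIF (pH 6.5) with 1% porcine pancreatin; aliquots quenched at various times and analyzed by LC-MS/MS against internal standard. Half-life from first-order exponential decay fit of percent remaining.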

rh integrin α4β7 = molecular target: T1, rh integrin α4β7 (Homo sapiens, UniProt P13612+P26010); experiment: α4β7-MAdCAM Competition ELISA; assay type: binding
T1 construct: purchased R&D Systems 5397-A30
Outline: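 Recombinant human α4β7 was captured on nickel plates at 800 ng/well. Peptide in 3-fold serial dilution (final top 10 μM) competed with MAdCAM-1 (final 10 nM) for 1 h at room temperature in 50 mM Tris pH 7.6, 150 mM NaCl, 1 mM MnCl2 or MgCl2. Bound MAdCAM-1 was detected with anti-human IgG1-HRP/TMB at A450.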

[2] = Table 3-B, Potency (α4β7), range classes, read-out: α4β7 cell (Hu) IC50
[3] = pH 6.5, Table 3-B, > means experiment was stopped at that time and half life was not reached, read-out: Stabilty SIF t1/2
[4] = Table 3-B, Potency (α4β7), range classes, read-out: α4β7 ELISA IC50
[5] = Table 4-B, read-out: Cell Adhesion α4β7 IC50
[6] = pH 6.5, Table 4-C, t1/2, > means assay stopped at that time, read-out: SIF (porcine) Min
[7] = Table 4-B, read-out: ELISA α4β7 IC50

Sequence of α4β7 (P13612 34-1032): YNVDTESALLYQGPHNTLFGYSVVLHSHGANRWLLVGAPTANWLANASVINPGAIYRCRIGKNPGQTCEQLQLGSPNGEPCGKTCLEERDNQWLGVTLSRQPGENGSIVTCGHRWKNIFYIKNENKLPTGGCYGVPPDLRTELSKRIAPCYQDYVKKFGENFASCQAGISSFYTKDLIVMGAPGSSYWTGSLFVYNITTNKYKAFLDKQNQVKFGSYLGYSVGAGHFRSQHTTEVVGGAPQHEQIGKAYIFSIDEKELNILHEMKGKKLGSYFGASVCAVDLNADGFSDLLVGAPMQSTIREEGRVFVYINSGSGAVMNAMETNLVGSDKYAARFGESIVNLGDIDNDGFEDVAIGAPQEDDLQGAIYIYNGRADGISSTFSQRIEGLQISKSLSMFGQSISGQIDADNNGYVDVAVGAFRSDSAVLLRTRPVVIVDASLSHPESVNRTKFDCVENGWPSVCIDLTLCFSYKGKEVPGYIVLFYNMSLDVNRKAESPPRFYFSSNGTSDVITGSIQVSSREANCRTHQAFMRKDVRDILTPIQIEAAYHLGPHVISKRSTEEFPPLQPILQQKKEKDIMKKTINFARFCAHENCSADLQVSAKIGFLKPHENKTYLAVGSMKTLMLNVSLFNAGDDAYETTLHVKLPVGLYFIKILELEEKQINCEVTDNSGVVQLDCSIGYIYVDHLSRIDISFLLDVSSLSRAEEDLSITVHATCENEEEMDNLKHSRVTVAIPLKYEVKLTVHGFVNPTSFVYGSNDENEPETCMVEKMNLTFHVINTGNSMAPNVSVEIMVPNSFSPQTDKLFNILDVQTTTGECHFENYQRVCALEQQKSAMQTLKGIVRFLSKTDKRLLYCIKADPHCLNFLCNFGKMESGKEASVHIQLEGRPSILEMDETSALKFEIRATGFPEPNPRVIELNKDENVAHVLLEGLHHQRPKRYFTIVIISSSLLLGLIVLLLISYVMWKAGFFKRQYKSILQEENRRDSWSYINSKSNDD
Sequence of α4β7 (P26010 20-798): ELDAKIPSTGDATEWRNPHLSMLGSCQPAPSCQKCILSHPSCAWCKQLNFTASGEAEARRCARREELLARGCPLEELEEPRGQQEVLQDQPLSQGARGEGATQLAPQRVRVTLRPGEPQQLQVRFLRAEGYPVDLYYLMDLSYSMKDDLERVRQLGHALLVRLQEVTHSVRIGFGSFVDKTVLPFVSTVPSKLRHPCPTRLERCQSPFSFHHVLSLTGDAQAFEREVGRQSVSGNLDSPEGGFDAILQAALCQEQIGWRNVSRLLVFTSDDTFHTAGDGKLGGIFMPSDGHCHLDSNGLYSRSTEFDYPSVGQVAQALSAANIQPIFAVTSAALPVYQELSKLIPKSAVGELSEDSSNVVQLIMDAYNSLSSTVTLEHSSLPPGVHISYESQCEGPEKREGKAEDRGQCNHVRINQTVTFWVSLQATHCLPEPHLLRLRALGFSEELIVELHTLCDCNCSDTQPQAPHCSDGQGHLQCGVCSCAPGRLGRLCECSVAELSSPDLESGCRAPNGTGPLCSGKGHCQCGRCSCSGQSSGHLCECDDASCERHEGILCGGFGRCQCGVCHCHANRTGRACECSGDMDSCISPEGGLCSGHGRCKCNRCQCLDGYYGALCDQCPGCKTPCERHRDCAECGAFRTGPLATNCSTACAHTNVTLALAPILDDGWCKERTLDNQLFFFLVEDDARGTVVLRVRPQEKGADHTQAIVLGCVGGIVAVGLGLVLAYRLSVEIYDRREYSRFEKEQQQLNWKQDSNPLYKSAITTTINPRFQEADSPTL
T1 sequence (P13612 34-977 limits assumed): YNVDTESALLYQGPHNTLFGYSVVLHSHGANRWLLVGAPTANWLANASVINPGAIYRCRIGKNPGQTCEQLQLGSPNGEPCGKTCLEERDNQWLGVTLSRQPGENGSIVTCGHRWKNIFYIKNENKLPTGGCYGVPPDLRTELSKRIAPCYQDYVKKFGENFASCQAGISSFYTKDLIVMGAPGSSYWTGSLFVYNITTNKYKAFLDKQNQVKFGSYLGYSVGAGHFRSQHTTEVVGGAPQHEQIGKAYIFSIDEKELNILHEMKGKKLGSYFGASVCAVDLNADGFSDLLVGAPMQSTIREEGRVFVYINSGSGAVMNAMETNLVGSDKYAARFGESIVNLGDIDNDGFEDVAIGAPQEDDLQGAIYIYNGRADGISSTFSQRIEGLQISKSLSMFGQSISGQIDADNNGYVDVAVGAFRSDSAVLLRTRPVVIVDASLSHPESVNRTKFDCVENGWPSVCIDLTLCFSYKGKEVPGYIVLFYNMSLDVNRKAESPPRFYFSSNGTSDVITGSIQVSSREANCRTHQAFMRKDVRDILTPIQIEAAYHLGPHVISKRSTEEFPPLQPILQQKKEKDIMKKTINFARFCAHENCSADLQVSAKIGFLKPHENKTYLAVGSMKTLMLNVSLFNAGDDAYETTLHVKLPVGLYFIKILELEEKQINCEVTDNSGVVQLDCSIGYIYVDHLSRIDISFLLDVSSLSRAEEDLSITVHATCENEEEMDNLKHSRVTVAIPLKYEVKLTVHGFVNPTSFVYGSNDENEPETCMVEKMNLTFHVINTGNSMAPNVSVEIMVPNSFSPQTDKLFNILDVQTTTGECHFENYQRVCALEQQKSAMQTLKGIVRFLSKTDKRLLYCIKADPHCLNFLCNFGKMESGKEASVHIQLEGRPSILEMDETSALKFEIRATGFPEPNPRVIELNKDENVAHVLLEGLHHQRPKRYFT
T1 sequence (P26010 20-723 limits assumed): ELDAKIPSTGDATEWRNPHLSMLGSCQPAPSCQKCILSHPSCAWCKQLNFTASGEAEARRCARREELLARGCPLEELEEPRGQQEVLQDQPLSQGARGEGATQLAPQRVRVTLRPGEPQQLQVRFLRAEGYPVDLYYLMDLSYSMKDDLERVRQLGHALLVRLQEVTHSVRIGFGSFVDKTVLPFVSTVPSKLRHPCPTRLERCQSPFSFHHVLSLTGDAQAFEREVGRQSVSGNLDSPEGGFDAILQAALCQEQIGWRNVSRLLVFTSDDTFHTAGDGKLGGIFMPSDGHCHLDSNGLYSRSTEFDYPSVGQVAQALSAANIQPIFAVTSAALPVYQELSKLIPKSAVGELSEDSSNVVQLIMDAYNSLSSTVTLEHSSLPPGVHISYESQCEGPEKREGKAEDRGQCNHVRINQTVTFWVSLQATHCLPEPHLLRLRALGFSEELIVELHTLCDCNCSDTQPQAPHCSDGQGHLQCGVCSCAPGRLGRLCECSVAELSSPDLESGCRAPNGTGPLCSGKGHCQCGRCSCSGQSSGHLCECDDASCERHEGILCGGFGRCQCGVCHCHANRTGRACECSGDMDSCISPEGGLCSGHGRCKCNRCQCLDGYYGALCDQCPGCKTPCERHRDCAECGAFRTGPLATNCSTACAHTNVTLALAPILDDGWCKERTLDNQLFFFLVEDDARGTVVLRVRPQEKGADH

Work on `CC(=O)N[C@@H]1C(=O)N(C)[C@@H](CCCNC(=N)N)C(=O)N[C@@H](CO)C(=O)N[C@@H](CC(=O)O)C(=O)N[C@@H]([C@@H](C)O)C(=O)N[C@@H](CC(C)C)C(=O)N[C@H](C(=O)N[C@@H](Cc2ccc(-c3ccccc3)cc2)C(=O)N[C@@H](CCC(=O)O)CC(=O)N(C)[C@@H](CCCCNC(=O)COCC(=O)NCCCC[C@@H](C(N)=O)N(C)C(=O)C[C@H](CCC(=O)O)NC(=O)[C@H](Cc2ccc(-c3ccccc3)cc2)NC(=O)[C@H]2NC(=O)[C@H](CC(C)C)NC(=O)[C@H]([C@@H](C)O)NC(=O)[C@H](CC(=O)O)NC(=O)[C@H](CO)NC(=O)[C@H](CCCNC(=N)N)N(C)C(=O)[C@@H](NC(C)=O)C(C)(C)SSC2(C)C)C(N)=O)C(C)(C)SSC1(C)C` [compound 150] (I: Ac-[Pen][NMeR]SDTL[Pen][Bip][β3hE][NMeK]-NH2 / II: Ac-[Pen][NMeR]SDTL[Pen][Bip][β3hE][NMeK]-NH2; disulfide I:1-I:7, II:1-II:7; linker I:10-II:10 via Diglycolyl) yielded an IC50 (α4β7; [2]) of under 10 nM, a half-life at 22 μM [1, 3] of over 5 h and an IC50 (rh integrin α4β7; [4]) of under 10 nM.

For `CC(=O)N[C@@H]1C(=O)N(C)[C@@H](CCCNC(=N)N)C(=O)N[C@@H](CO)C(=O)N[C@@H](CC(=O)O)C(=O)N[C@@H]([C@@H](C)O)C(=O)N[C@@H](CC(C)C)C(=O)N[C@H](C(=O)N[C@@H](Cc2ccc(C(C)(C)C)cc2)C(=O)N[C@@H](CCC(=O)O)CC(=O)O)C(C)(C)SSC1(C)C` [compound 152] (Ac-[Pen][NMeR]SDTL[Pen][Phe(4-tBu)][β3hE]-OH; disulfide 1-7), the IC50 (α4β7; [2]) was under 10 nM, the half-life at 22 μM [1, 3] was 2.45 h and the IC50 (rh integrin α4β7; [4]) was under 10 nM.

In the case of `CC(=O)N[C@@H]1C(=O)N(C)[C@@H](CCCNC(=N)N)C(=O)N[C@@H](CO)C(=O)N[C@@H](CC(=O)O)C(=O)N[C@@H]([C@@H](C)O)C(=O)N[C@@H](CC(C)C)C(=O)N[C@H](C(=O)N[C@@H](Cc2ccc(C(C)(C)C)cc2)C(=O)N[C@@H](CCC(=O)O)CC(=O)N[C@H](CCCCN)C(N)=O)C(C)(C)SSC1(C)C` [compound 153] (Ac-[Pen][NMeR]SDTL[Pen][Phe(4-tBu)][β3hE][dK]-NH2; disulfide 1-7), the IC50 (α4β7; [2]) is reported as 10 to 25 nM, the half-life at 22 μM ([1]; pH 6.5, Table 3-B, alone or in parentheses after >360, read-out: Stabilty SIF t1/2, in hr (converted)) is reported as 13.6 h and the IC50 (rh integrin α4β7; [4]) is reported as 10 to 25 nM.

Molecule `CC(=O)N[C@H]1CSSC[C@@H](C(=O)NCC(=O)N[C@@H](CCC(=O)O)C(N)=O)NC(=O)[C@H](CC(C)C)NC(=O)[C@H]([C@@H](C)O)NC(=O)[C@H](CC(=O)O)NC(=O)[C@H](CO)NC(=O)[C@H](CCCNC(=N)N)NC1=O` [compound 194, Ac-C-R-S-D-T-L-C-G-E-NH2] (Ac-CRSDTLCGE-NH2; disulfide 1-7) has an IC50 (α4β7; [5]) of 590 nM, a half-life at 22 μM [1, 6] of under 0.0167 h and an IC50 (rh integrin α4β7; [7]) of 97 nM.

For `CC(=O)N[C@H]1CSSC[C@@H](C(N)=O)NC(=O)[C@H](CC(C)C)NC(=O)[C@H]([C@@H](C)O)NC(=O)[C@H](CC(=O)O)NC(=O)[C@H](CO)NC(=O)[C@H](CCCNC(=N)N)NC1=O` [compound 195, Ac-C-R-S-D-T-L-C-NH2] (Ac-CRSDTLC-NH2; disulfide 1-7), the IC50 (α4β7; [5]) was 1220 nM, the half-life at 22 μM [1, 6] was under 0.0167 h and the IC50 (rh integrin α4β7; [7]) was 97 nM.

`CC(=O)N[C@H]1CSSC[C@@H](C(=O)NCC(=O)N[C@@H](CCC(=O)O)C(=O)N[C@@H](CCCCN)C(N)=O)NC(=O)[C@H](CC(C)C)NC(=O)[C@H]([C@@H](C)O)NC(=O)[C@H](CC(=O)O)NC(=O)[C@H](CO)NC(=O)[C@H](CCCNC(=N)N)NC1=O` [compound 196, Ac-C-R-S-D-T-L-C-G-E-K-NH2] (Ac-CRSDTLCGEK-NH2; disulfide 1-7) gave an IC50 (α4β7; [5]) of 6660 nM, a half-life at 22 μM [1, 6] of under 0.0667 h and an IC50 (rh integrin α4β7; [7]) of 87 nM.
